Source: PMC11206507, “Unraveling the Impact of Six Pentacyclic Triterpenes Regulating Metabolic Pathways on Lung Carcinoma Cells” (Pharmaceuticals, 2024)
Entries after “also recorded” stand apart in the source; their conditions may differ. Like-named read-outs stand apart in the source and are kept apart here.

Tests used:
[1] = test system: NSCLC A549 cells; assay: MTS/PMS cell viability, A549; format: cell-based, human; settings: for TI > 1: summary, MRC5 vs A549; as to TI > 1: key: '✔' means induction; '-' means non-induction of any of the tested processes
Protocol: A similar procedure was performed to determine the IC50 of the triterpenes in a normal lung fibroblast cell line (MRC5). In brief, the A549 and MRC5 cells were seeded into 96-well plates at a density of 1 × 10^5 cells/mL in supplemented DMEM medium. […] Then, 10 uL of the MTS reagent from the CellTiter 96® Aqueous Non-Radioactive Cell Proliferation Assay (Promega G5421) was added to each well. Then, we incubated the plates at 37 °C and in a 5% CO2 atmosphere for 1 h. After incubation, the absorbance was measured at 492 nm (n = 8) in a microplate reader spectrophotometer (Thermoscientific Multiskan FC). The cell viability was calculated as follows:% Viability = (sample absorbance − sample media absorbance)/(untreated cells’ absorbance − untreated cells’ media absorbance) × 100
The cell viability data were presented by plotting the values with an average of eight measurements for each treatment (mean ± SD) in at least three independent experiments. The IC50 values were calculated with the GraphPad Prism 9 software (Prism 9; GraphPad by Dotmatics, San Diego, CA, USA) using the dose–response curve.

[2] = test system: A549 cells; assay: Externalization of phosphatidylserine, Annexin V confocal microscopy; format: cell-based, human; settings: A549, IC25, 24 h
Protocol: Early apoptotic activity was evaluated by the externalization of PS using the Alexa Fluor® 488 Annexin V Apoptosis Reagent (Molecular Probes™) and NucBlue ReadyProbes Reagent™ (Thermo Fisher Scientific). For this assay, A549 cells were seeded in 8-well cover slip plates with a density of 1 × 10^5 cells/mL for 24 h in supplemented DMEM. Then, the A549 cells were incubated with the triterpenes (IC25) and controls for 24 h. Afterward, the cells were washed with 1× PBS and incubated with NucBlue (DAPI analog) and Annexin V for 15 min in the dark. The cells were fixed with 3.7% formaldehyde solution for 15 min, washed three times with 1× PBS, and covered with glycerol before visualization. The plates were observed by confocal microscopy using a Nikon Eclipse Ti microscope (Nikon Instruments Inc., El Segundo, CA, USA), utilizing a 20× oil objective with filter sets compatible with DAPI (Ex/Em = 405/460 nm) and Annexin V Alexa Fluor (Ex/Em = 488/525 nm). The fluorescence intensity was analyzed using the NIS-Elements Viewer program (version 5.21 64-bit) (Nikon Instruments Inc.). Each sample was analyzed in duplicate in two independent experiments. The fluorescence intensity was adjusted using untreated cells for each fluorescence channel (green and blue). Subsequently, this calibrated intensity was applied for the analysis of all treated cells.

[3] = test system: MAPK/PI3K; assay: MAPK/PI3K protein expression (dual pathway activation kit, flow cytometry); format: cell-based, human; settings: for MAPK/PI3K expression (in words): A549, IC25, 24 h, vs untreated cells; for MAPK/PI3K inhibition: summary, NSCLC A549 cells; as to MAPK/PI3K inhibition: key: '✔' means induction; '-' means non-induction of any of the tested processes
Protocol: (§1) We used flow cytometry to analyze several cellular mechanistic pathways in A549 cells after incubation with the triterpenes. In general, the cells were seeded in a 6-well plate at a density of 1 × 10^6 cells/mL and incubated for 24 h in supplemented DMEM. After 24 h, the A549 cells were treated with the triterpenes, following each manufacturer’s protocol. All of the following experiments were performed in a Muse® Cell Analyzer (EMD Millipore Corporation, Temecula, CA). The instrument was calibrated before each assay using the Muse® System Check Kit (Luminex MCH100101, Luminex Corporation). Each assay was run at least in two independent experiments. For each experiment, all samples were analyzed in triplicate in the instrument and the capillary line was washed after each sample run to avoid artifacts. In addition, to address the issue of cell doublets, we used the Muse® Cell Dispersal Reagent (Luminex Corporation) in all experiments. The concentration of the triterpenes in each assay was selected depending on the cellular concentration necessary to generate the gain signal in the instrument. This means that we attempted to select concentrations avoiding excessive cytotoxicity to accurately determine the respective signal from each assay.
The Muse® P13K/MAPK Dual Pathway Activation Kit (Luminex MCH200108, Luminex Corporation) was used to determine MAPK/PI3K expression. After the incubation treatment with the triterpenes (IC25) for 24 h, the A549 cells were scraped, centrifuged, and washed once with 1× PBS. Next, the fixation buffer was incubated for 10 min and then the permeabilization buffer for another 10 min. Both incubations were performed on ice. Later, the antibody cocktail containing anti-phospho-Akt and anti-phospho-ERK1/2 was incubated for 30 min. Afterward, the cell pellet was washed and suspended in fresh assay buffer for measurement.

[4] = test system: NSCLC A549 cells; design: method as in PMID 31338398; settings: 24 h, MTS/PMS; already obtained by the authors; cited from earlier work
[5] = test system: caspase 3; assay: Caspase 3 activity assay (Apo-ONE Caspase-3/7); format: cell-based, human; settings: for Caspase 3 activation (in words): A549, IC50, 24 h, vs untreated cells and CisPt
Protocol: The intrinsic apoptosis activity was evaluated by the quantification of caspase 3 enzymatic activity using the Apo-ONE® Homogeneous Caspase-3/7 Assay (Promega G7792). A549 cells were seeded in a concentration of 1 × 10^5 cells/mL into black 96-well plates with a clear bottom. […] After the completion of the incubation, 50 μL of Apo-ONE® Caspase-3/7 Reagent (1:100 rhodamine 110 bis-(N-CBZ-l-aspartyl-l-glutamyl-l-valyl-aspartic acid amide) (Z-DEVD-R110) substrate diluted in lysis buffer) was added to each well. The plate was gently mixed using a plate shaker at 150 rpm for 2 h at room temperature. Then, the fluorescence of each well was measured (Ex/Em = 485/530 nm) in the Tecan® M200 plate reader.
The caspase 3 activity experiments were performed in triplicate. All data were expressed by plotting the values with an average of three measurements for each treatment condition as the mean ± SD and analyzed with the software GraphPad Prism 9 (San Diego, CA, USA). Statistical analysis was performed using one-way analysis of variance (ANOVA) to compare the mean value of each type of treated cells versus the control (untreated cells). The statistical significance defined by the software for p values was **** < 0.0001, *** from 0.001 to 0.0001, ** from 0.001 to 0.01, * from 0.01 to 0.05, and non-significant (ns) ≥ 0.05.

[6] = test system: LC3-II; assay: Autophagy induction assay (LC3 antibody, flow cytometry); format: cell-based, human; settings: for Autophagic response (in words): A549, IC25, 24 h, vs controls (untreated ratio 0.8, starving ratio 1); for Autophagy inhibition: summary, NSCLC A549 cells
Protocol: as §1
The Muse® Autophagy LC3 Antibody-Based Kit (Luminex MCH200109, Luminex Corporation) was used to determine autophagy activation by monitoring lipidated LC3-II. After the A549 cells were treated with the triterpenes (IC25) for 24 h, autophagy reagent A was added for 4 h to prevent the lysosomal degradation of LC3-II. Then, the cells were detached and centrifuged. The pellet was suspended and incubated for 30 min in the autophagy reagent B containing anti-LC3-II mouse monoclonal antibody. Finally, the cell pellet was washed and suspended in fresh assay buffer for measurement. The autophagy response was calculated using the following formula:
Autophagy ratio = mean autophagy value of treated or untreated cells/mean autophagy value of starving cells.
The starving cells were labeled ‘No supp’ as non-supplemented cells. These served as the positive signal for autophagy and were designated a ratio of 1 since they were compared to themselves. A ratio ≥1 indicates the activation of the autophagic response.

Row | Structure (SMILES) | TI [1] | TI ([1]; TI = MRC5 IC50/A549 IC50, >1 means higher selectivity) | Early apoptosis, externalization of PS (in words, qualitative) [2] | MAPK/PI3K expression (in words) [3] | MAPK/PI3K inhibition [3] | IC50 [4] | IC50 ([1]; Homo sapiens, A549, 24 h, MTS/PMS) | TI > 1 [1] | Caspase 3 activation (in words) [5] | Autophagic response (in words) [6] | Autophagy inhibition [6] | Caspase 3 activation ([5]; summary, NSCLC A549 cells)
1 | C=C(C)[C@@H]1CC[C@]2(C(=O)O)CC[C@]3(C)[C@H](CC[C@@H]4[C@@]5(C)CC[C@H](O)C(C)(C)[C@@H]5CC[C@]43C)[C@@H]12 [BeA, betulinic acid] | 1.27 | > 1 | lowest | did not affect the expression of MAPK/PI3K | - | 15 ± 0.7 µM |  |  |  |  |  | 
2 | C=C(C)[C@@H]1CC[C@]2(CO)CC[C@]3(C)[C@H](CC[C@@H]4[C@@]5(C)CC[C@H](O)C(C)(C)[C@@H]5CC[C@]43C)[C@@H]12 [Betu, betulin] | 0.73 |  | strongest activation | slightly inhibit the total expression of MAPK/PI3K |  |  | 22 ± 1 µM | - | higher caspase 3 activation than CisPt | induced an autophagic response similar to that of CisPt | - | 
3 | C=C(C)[C@@H]1CC[C@]2(C)CC[C@]3(C)[C@H](CC[C@@H]4[C@@]5(C)CC[C@H](O)C(C)(C)[C@@H]5CC[C@]43C)[C@@H]12 [Lupe, lupeol] | 1.26 |  | lowest | did not affect the expression of MAPK/PI3K | - | 80 ± 6 µM |  |  |  | inhibit the LC3-II activity |  | -
4 | C[C@H]1[C@H](C)CC[C@]2(C(=O)O)CC[C@]3(C)C(=CC[C@@H]4[C@@]5(C)CC[C@H](O)C(C)(C)[C@@H]5CC[C@]43C)[C@H]12 [UrA, ursolic acid] | 0.57 |  | strongest activation | induced the simultaneous expression of MAPK and PI3K | - | 23 ± 1 µM |  | - | higher caspase 3 activation than CisPt; also recorded: highest | induced an autophagic response similar to that of CisPt | - | 
